Where no end group is shown, it is not given here.
Experiment: pair feeding in rats (food intake and body weight)
Assay type: in vivo, Male Wistar rats
Details: for body weight gain versus corresponding pair-fed (PF) group: 10 days; for body weight gain versus corresponding pair-fed (PF) group / overall body weight change by the end of the 10 day test period versus saline control: FIG. 12b; for total food intake over 10 days / overall body weight change by the end of the 10 day test period versus saline control: daily injection, exendin-4 30, 285 100, 373 50, 398 200 nmol/kg; for total food intake over 10 days: FIG. 12a
Text: Pair feeding is a technique used to separate the weight loss observed in a cohort of animals which has been caused by appetite suppression from the weight loss caused by the induction of metabolic changes. Pair-feeding studies require daily measurement of body weight (BW) and food intake (FI). In pair-feeding studies, rats were divided into three weight-matched groups. Group 1 (the “saline” group) were given a daily injection of saline and allowed access to ad libitum food. Group 2 (identified by the code of the compound administered) were given daily injection of a selected compound of the invention and allowed access to ad libitum food.

HSQGTFTSDYSKYLDSQAVHLFIQWLLNGGPSSGAPPPS [compound 237]
body weight compared to the saline control (100 nmol/kg daily): reduction in body weight compared to the saline control | body weight reduction versus pair-fed (G237 PF) group (100 nmol/kg daily): not solely mediated by a reduction in food intake

His Ser Gln Gly Thr Phe Thr Ser Asp Tyr Ser His Tyr Leu Asp Ser Lys Ala Val His Leu Phe Ile Gln Trp Leu Leu Asn Gly-NH2 (HSQGTFTSDYSHYLDSKAVHLFIQWLLNG-NH2) [compound 285]
body weight gain versus corresponding pair-fed (PF) group: lower weight gains than the corresponding paired feeding groups | total food intake over 10 days: less overall food intake | overall body weight change by the end of the 10 day test period versus saline control: lower body weight gain than the saline control group

His Ser Gln Gly Thr Phe Thr Ser Asp Tyr Ser Lys Tyr Leu Glu Ser Gln Ala Val His Leu Phe Ile Glu Trp Leu Lys Asn Gly-NH2 (HSQGTFTSDYSKYLESQAVHLFIEWLKNG-NH2) [compound 373]
body weight gain versus corresponding pair-fed (PF) group: lower weight gains than the corresponding paired feeding groups | total food intake over 10 days: less overall food intake | overall body weight change by the end of the 10 day test period versus saline control: lower body weight gain than the saline control group

His Ser Gln Gly Thr Phe Thr Ser Asp Tyr Ser Lys Tyr Leu Asp Ser Gln Ala Val Arg Leu Phe Ile Glu Trp Leu Leu Asn Gly-NH2 (HSQGTFTSDYSKYLDSQAVRLFIEWLLNG-NH2) [compound 398]
body weight gain versus corresponding pair-fed (PF) group: lower weight gains than the corresponding paired feeding groups | total food intake over 10 days: less overall food intake | overall body weight change by the end of the 10 day test period versus saline control: lower body weight gain than the saline control group

From US9944687B2, “Compounds and their effects on feeding behaviour” (Imperial Innovations Limited, priority 2011, dated 2018)
